Assay results as given in US20090029979A1, “5-HTX MODULATORS” (BIO-MEDISINSK INNOVASJON AS, priority 2005, published 2009).
Structures can show the parent of a compound that is named as a salt.

Target: T1, human 5-HT2A receptor (Homo sapiens, UniProt P28223)
T1 construct: expressed in transfected cells; host or cells: HEK293, transient transfection
Test: Radioligand binding assay with [3H]ketanserin, membranes of HEK293 cells transiently transfected with human 5-HT2A receptor
Conditions: 5-HT2A ligands, values are pKd ± half-range, read-out: Binding affinity (pKd value) (pKd ± SEM) (converted)
Method: Binding assays were performed in 96-well, round-bottom microtiter plates with total reaction volumes of 50-200 μl, containing the indicated concentration of [^3H]GR113808 with or without competing unlabelled ligand in a binding buffer containing 50 mM Tris-HCl (pH 7.5 at RT), 1 mM EDTA, 5 mM EGTA, 2 mM MgCl2, 1 mM ascorbate, 0.1% BSA and 100 μM GTP. The plates were incubated at 23° C. for 60 min and harvested onto UniFilter™-96 GF/C™ (Packard Instrument Co., Meriden, Conn., USA), presoaked in 0.3% polyethyleneimine (Sigma), using a Packard FilterMate Universal Harvester with 96-well format, and washed 4-6 times with approximately 0.25 ml/well of ice-cold buffer, containing 50 mM Tris-HCl (pH 7.0 at RT) and 2 mM MgCl2. The filters were dried and counted at approximately 40% efficiency in a Top-Count liquid scintillation counter (Packard), using 20 μl per filter well of Micro-Scint liquid scintillation cocktail (Packard).
The same materials and methods described in example 83 were used for the biological testing of hydrophilic 5-HT7 and 5-HT2A ligands. Membrane preparations of HEK293 cell lines stably expressing human 5-HT7(a) receptors (Krobert et al. 2001), or HEK293 cells transiently transfected with human 5-HT2A receptor were used in the binding assays. […]

T1 sequence (P28223 whole entry): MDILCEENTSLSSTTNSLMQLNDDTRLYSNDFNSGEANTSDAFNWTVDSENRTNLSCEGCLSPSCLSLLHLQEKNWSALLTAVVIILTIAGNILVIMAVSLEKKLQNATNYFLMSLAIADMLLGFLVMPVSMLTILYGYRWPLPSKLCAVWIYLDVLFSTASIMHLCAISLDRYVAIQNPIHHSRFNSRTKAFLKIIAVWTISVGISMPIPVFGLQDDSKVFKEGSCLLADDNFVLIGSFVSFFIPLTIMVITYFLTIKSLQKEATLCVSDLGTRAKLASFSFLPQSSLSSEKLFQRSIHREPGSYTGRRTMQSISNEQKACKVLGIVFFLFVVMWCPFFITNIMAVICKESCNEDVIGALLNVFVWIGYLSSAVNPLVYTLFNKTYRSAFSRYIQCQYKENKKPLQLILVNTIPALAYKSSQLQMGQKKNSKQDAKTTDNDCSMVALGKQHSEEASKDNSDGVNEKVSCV

Compound	Kd [µM]
COC(=O)c1ccc(CN2CCC(NC(=O)C34CC5CC(CC(C5)C3)C4)C2)cc1 (centres unmarked) [Example 72]	49
COc1cc(OC)c(C(=O)CCCCN2CCC3(CC2)NC(=O)NC3=O)cc1NS(=O)(=O)c1ccc(C(F)(F)F)cc1 [RS102221, 8-(5-(2,4-Dimethoxy-5-(4-trifluoromethylphenylsulphonamido)phenyl-5-oxopentyl]-1,3,8-triazaspiro[4.5]decane-2,4-dione hydrochloride, reference compound]	4.57
